Results from patent US9738591B2, “Antimicrobial compounds” (priority 2009, dated 2017).
≈ marks a conversion by molar mass, not a printed value.

Key:
Type in all cases: cell-based
[1] = tested on: S. aureus NCTC 10442 (MRSA); test: MIC and MBC by broth microdilution; details: Staphylococcus aureus, CA-MHB, two independent replicates
Experimental: (§1) The method used was based on CLSI protocols for broth microdilution testing of these species. As recommended by CLSI, inocula were prepared by direct colony suspension, and the media used were cation-adjusted Mueller Hinton broth (CA-MHB) for Staphylococcus spp. and CA-MHB containing 5% lysed horse blood (CA-MHB+LHB) for Streptococcus spp. Briefly, 24 h blood agar plate (BA) cultures of Staphylococcus aureus strains NCTC 6571, ATCC 29213, ATCC 33592 (MRSA) and NCTC 10442 (MRSA), Staphylococcus epidermidis ATCC 29971, Staphylococcus xylosus ATCC 29971, Streptococcus pneumoniae strains ATCC 49619 and ATCC 6305, and Streptococcus pyogenes strains NCTC 8191 and NCTC 8302 were used to prepare 0.5 McFarland suspensions in saline. Two 640 μg/ml working stocks of TSB007 were prepared from a fresh master stock, one in CA-MHB for testing against the Staphylococcus spp. and the other in CA-MHB+LHB for testing against Streptococcus spp. The working stocks were further diluted 1/10 in these broths for adding to microtitre trays to test MICs of 32, 16, 8, 4, 2, 1, 0.5, 0.25, 0.125 and 0.06 μg/ml.
(§2) The wells of two 96-well microtitre trays (one for Staphylococcus spp. and one for Streptococcus spp.) were filled with 100 μl of the appropriate broth, except for the first column. The last column, a sterility control containing no TSB007 or inoculum, was filled with an additional 100 μl broth. Then 100 μl of the 64 μg/ml TSB007 solution was added to the first two columns, the contents of column 2 was mixed, then 100 μl of this was used in two-fold serial dilutions along the rest of the tray except the last two columns. The final 100 μl was discarded. […] Finally, to the first 11 wells of one row per strain, 100 μl of a 10^−2 dilution (in the appropriate broth) of the 0.5 McFarland suspension was added. The microtitre trays were then incubated at 35° C. for 24 h before the MICs were read visually. Wells were further subcultured (10 μl drop onto BA then incubated at 35° C. for 24 h) and colonies subsequently counted to determine minimum bactericidal concentrations (MBCs). The concentration of the initial inoculum was confirmed on BA by counting colonies from 2×10 μl spots of 10^−5 dilutions of the 0.5 McFarland suspensions. Testing was performed on two separate occasions.

S. pneumoniae ATCC 6305 = test: MIC and MBC by broth microdilution; details: Streptococcus pneumoniae, ATCC6305, CA-MHB+LHB, two independent replicates
Experimental: as §1, §2

S. pneumoniae ATCC 49619 = test: MIC and MBC by broth microdilution; details: Streptococcus pneumoniae, ATCC49619, CA-MHB+LHB, two independent replicates
Experimental: as §1, §2

S. pyogenes NCTC 8302 = test: MIC and MBC by broth microdilution; details: Streptococcus pyogenes, NCTC8302, CA-MHB+LHB, two independent replicates
Experimental: as §1, §2

S. aureus NCTC 6571 [2] = test: MIC and MBC by broth microdilution; details: Staphylococcus aureus, NCTC6571, CA-MHB, two independent replicates
Experimental: as §1, §2

[3] = tested on: S. aureus ATCC 33592 (MRSA); test: MIC and MBC by broth microdilution; details: Staphylococcus aureus, CA-MHB, two independent replicates
Experimental: as §1, §2

S. pyogenes NCTC 8191 = test: MIC and MBC by broth microdilution; details: Streptococcus pyogenes, NCTC8191, CA-MHB+LHB, two independent replicates
Experimental: as §1, §2

S. xylosus ATCC 29971 = test: MIC and MBC by broth microdilution; details: Staphylococcus xylosus, ATCC29971, CA-MHB, two independent replicates
Experimental: as §1, §2

S. aureus ATCC 29213 = test: MIC and MBC by broth microdilution; details: Staphylococcus aureus, ATCC29213, CA-MHB, two independent replicates
Experimental: as §1, §2

S. aureus NCTC 6571 [4] = test: Time-kill experiments; details: for effect on viability over the 4 h of the experiment: MHB, 37° C.; for effect on viability over the 4 h of the experiment / viable counts at 24 h: initial 0.5-1.0×10^7 CFU/ml
Experimental: An overnight 10 ml MHB culture of S. aureus NCTC 6571 was diluted to 0.5 McFarland in MHB then 1 ml was used to inoculate each of four 100 ml flasks prepared as follows: • 1) 9.0 ml MHB (control) • 2) 9.99 ml MHB plus 9.7 μl of TSB007 working stock at 2048 μg/ml (1.8 μg/ml) • 3) 9.98 ml MHB plus 19.5 μl of TSB007 working stock at 2048 μg/ml (3.6 μg/ml) • 4) […] MHB plus 256 μl of a TSB007 master stock (320 μg/ml).
The flasks were incubated at 37° C. for 10 min before inoculation. Samples (0.1 ml) were taken immediately after inoculation (time 0) and then at 15, 30, 60, 120 and 240 min. The samples were immediately diluted 10^−1 in 0.01 M phosphate buffered saline at pH 7.0 (PBS). Further 10-fold dilutions in PBS were made down to 10^−4 until the 60 min time point, and then down to 10^−6 for the remaining time points. Viable counts were estimated using 3×20 μl drops from each dilution on MHA which was then incubated at 37° C. overnight before counting. These were normalised against the initial counts from each flask. Testing was performed on three separated occasions.

O=C(O)c1ccc(/C=C/c2cc(/C=C/c3ccc(C(=O)O)cc3)cc(/C=C/c3ccc(C(=O)O)cc3)c2)cc1 [TSB007]
MIC ([1]; 35° C., 24 h): 2 to 4 µg/mL (≈ 3.87 to 7.74 µM) | MBC [1]: > 32 µg/mL | MIC (S. pneumoniae ATCC 6305; 35° C., 24 h): > 32 µg/mL | MBC (S. pneumoniae ATCC 6305): > 32 µg/mL | MIC (S. pneumoniae ATCC 49619; 35° C., 24 h): 32 µg/mL (≈ 61.9 µM) | MBC (S. pneumoniae ATCC 49619): > 32 µg/mL | MIC (S. pyogenes NCTC 8302; 35° C., 24 h): > 32 µg/mL | MBC (S. pyogenes NCTC 8302): > 32 µg/mL | MIC (S. aureus NCTC 6571 [2]; 35° C., 24 h): 2 to 4 µg/mL (≈ 3.87 to 7.74 µM) | MBC (S. aureus NCTC 6571 [2]): > 32 µg/mL | MIC ([3]; 35° C., 24 h): 2 to 4 µg/mL (≈ 3.87 to 7.74 µM) | MBC [3]: > 32 µg/mL | MIC (S. pyogenes NCTC 8191; 35° C., 24 h): > 32 µg/mL | MBC (S. pyogenes NCTC 8191): > 32 µg/mL | MIC (S. xylosus ATCC 29971; 35° C., 24 h): 8 to 16 µg/mL (≈ 15.5 to 31 µM) | MBC (S. xylosus ATCC 29971): 8 to 16 µg/mL (≈ 15.5 to 31 µM) | MIC (S. aureus ATCC 29213; 35° C., 24 h): 4 µg/mL (≈ 7.74 µM) | MBC (S. aureus ATCC 29213): > 32 µg/mL | effect on viability over the 4 h of the experiment (S. aureus NCTC 6571 [4]; 1.8 μg/ml): inhibitory | viable counts at 24 h (S. aureus NCTC 6571 [4]; 1.8 μg/ml): 10^8 CFU/ml | effect on viability over the 4 h of the experiment (S. aureus NCTC 6571 [4]; 3.6 μg/ml): inhibitory | viable counts at 24 h (S. aureus NCTC 6571 [4]; 3.6 μg/ml): 10^3-10^6 CFU/ml | viable cells at first time point (S. aureus NCTC 6571 [4]; 320 μg/ml (1.25×MBC), 15 min): below the limit of detection | kill (S. aureus NCTC 6571 [4]; 320 μg/ml (1.25×MBC), first time point of 15 min): > 99.9%
